Results on two compounds are retold here after US20220090096A1 (priority 2019, published 2022).

One data set concerns Clostridium spp. Conditions: cited from earlier work.
Data set [1] relates to Pfdx-rbG-botR-T1-Pntnh-catP construct integrated in the pyrE locus. It counts as cell-based, C. botulinum ATCC 19397 ΔClA.

In the case of `Cc1c2c(c(O)c3c(O)cccc13)C(=O)[C@]1(O)C(=O)C(C(N)=O)=C(O)[C@@H](N(C)C)[C@@H]1C2` [anhydrotetracycline], the “effect on cell growth” value with Clostridium spp. is given as “significant inhibitory effects on cell growth”.

For the compound `Cn1c(=O)c2[nH]cnc2n(C)c1=O` [theophylline], the “CAT expression upon induction relative to absence of theophylline” value in data set [1] was “approximately 7 fold”.
